Experimental data: patent US7022716B2, “Cyclic amine phenyl beta-3 adrenergic receptor agonists” (Wyeth, priority 2000, dated 2006)

Tests used:
β3 Transgenic(Tg) Mice = assay: Thermogenesis (Oxymax indirect calorimetry) in β3 transgenic mice; settings: percent increase in thermogenesis over baseline; female FVB β3 transgenic mice; i.p. 0.1-20 mg/kg or oral 1.0-30 mg/kg
[1] = molecular target: T1, human β3 adrenergic receptor (Homo sapiens, UniProt P13945); assay: cAMP (SPA) response in CHO cells transfected with human β3 adrenergic receptor; assay type: cell-based; design: key: fraction of maximal isoproterenol (10^-5 M) response; settings: maximal response relative to maximal response of isoproterenol at 10^-5 M
T1 construct: Full length β3 AR clones (402 amino acids) containing the last 6 amino acids of hβ3-AR are prepared; expressed in transfected cells; host or cells: CHO (Chinese hamster ovary) cells
Method in brief: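 Reactions were stopped with 0.2N HCl and neutralised, and cAMP was measured by SPA. Activity is expressed as percent of the maximal 10^−5 M isoproterenol response.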

β3 Knockout(KO) Mice = assay: Thermogenesis (Oxymax indirect calorimetry) in β3 knockout mice; settings: percent increase in thermogenesis over baseline; female FVB β3 knockout mice; i.p. 0.1-20 mg/kg or oral 1.0-30 mg/kg

T1 sequence (P13945 whole entry): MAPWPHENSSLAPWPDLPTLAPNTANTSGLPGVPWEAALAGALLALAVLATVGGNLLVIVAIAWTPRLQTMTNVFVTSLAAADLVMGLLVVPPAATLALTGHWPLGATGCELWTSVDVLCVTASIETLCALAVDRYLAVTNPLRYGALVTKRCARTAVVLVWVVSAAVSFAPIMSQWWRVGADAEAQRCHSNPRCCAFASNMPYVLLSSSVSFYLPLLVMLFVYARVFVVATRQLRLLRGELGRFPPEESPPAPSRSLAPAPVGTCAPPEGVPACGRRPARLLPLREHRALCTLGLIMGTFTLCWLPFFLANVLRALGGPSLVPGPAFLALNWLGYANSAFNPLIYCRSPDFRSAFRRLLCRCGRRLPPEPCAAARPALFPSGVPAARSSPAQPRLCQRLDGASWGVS

melting point: > 170 °C (dec.) | IA(β3) [1]: 1.3
Structure (SMILES): CCOC(=O)C(=Cc1ccc(N2CCC(NC[C@H](O)c3ccc(O)c(NS(C)(=O)=O)c3)CC2)cc1)C(=O)O [Example 189, 2-(4-{4-[(2R)-2-Hydroxy-2-(4-hydroxy-3-methanesulfonylamino-phenyl)-ethylamino]-piperidin-1-yl}-benzylidene)-malonic acid monoethyl ester]
Thermogenesis (Tg mice) (β3 Transgenic(Tg) Mice): 33 ± 7% | Thermogenesis (KO mice) (β3 Knockout(KO) Mice): 6 ± 3%
